From paper PMC12165799, “Antimicrobial peptide developed with machine learning sequence optimization targets drug resistant Staphylococcus aureus in mice” (The Journal of Clinical Investigation, 2025) come the findings set out here.

≈ marks a conversion by molar mass, not a printed value. Read-outs that look alike come from different tables or passages of the source.

The subject of experiment [1] is S. aureus isolates. In words: microbe, parasite or virus in culture. The conditions noted are these: Staphylococcus aureus.
Experimental: (§6) 306 To determine the minimum concentration of peptide that inhibits the growth of bacteria,
(§7) 307 termed as the minimal inhibitory concentration (MIC), we used the broth microdilution method
(§8) 308 described by the Clinical and Laboratory Standards Institute (4). We made serial dilutions of 10×
(§9) 309 concentrated peptides (10 µl) in duplicate in 96-well plates (Cat no. 3595, Corning, NY, USA).
(§10) 310 We added 90 µl of logarithmic-phase bacteria at 1 × 10^6 CFU/ml (in TSB medium) to the peptides
(§11) 311 and then incubated the plates at 37°C for 18 hours. We determined the MIC using OD600
(§12) 312 measurements taken on a Spectra Max i3x spectrophotometer (Molecular Devices, CA, USA).
Experiment [2] relates to S. aureus MW2 (MRSA) exponential and persister cells. Nature of the experiment: S. aureus persister cell and time-kill assays (MW2). The conditions noted are these: approximately 1 × 10^8 CFU, 10 × MIC. It is filed as cell-based, Staphylococcus aureus. Here is the method: (§1) 305 Minimal inhibitory concentration (MIC) assay
(§2) We made serial dilutions of 10×
(§3) We determined the MIC using OD600
(§4) Accordingly, we added 150 mM NaCl,
(§5) 319 established protocol (5).
323 aureus VRS1) in PBS. To assess the killing kinetics of CIT-8 in persister cells, we added 1 ml of
324 cell suspension to the wells of a 2-ml deep-well assay block (Cat no. 3960, Corning, NY, USA)
We also included ciprofloxacin (at 10 μg/ml) for S.
326 aureus MW2 and linezolid (100 μg/ml) for S. aureus VRS1 as antibiotic controls. Additionally,
327 we included bithionol (at 10 μg/ml) as a positive control, known for its ability to kill stationary
328 phase persister cells (6). We incubated the plates at 37°C, with shaking at 225 rpm. At specific
329 times (0, 15, 30, 60, and 120 min), we collected 10 μl samples, diluted them serially, and then
330 plated them on tryptic soy agar (TSA) (BD Difco, NJ, USA) plates. We incubated the TSA plates
331 for 18 hours at 37°C for colony counting. We performed these experiments in duplicate. As a
332 comparison, we prepared the exponential cells of S. aureus MW2 and VRS1 in PBS and analyzed
333 their killing kinetics in the same manner as described for persister cells.

Experiment [3] relates to S. aureus MW2 established biofilm. Nature of the experiment: Fluorescence microscopy of established biofilms, live/dead staining. The conditions noted are these: 32 μg/mL, SYTO9 / propidium iodide. It is filed as cell-based, Staphylococcus aureus. Here is the method: 369 aureus MW2 (adjusted to 1 × 10^6 CFU/ml) in TSB medium (supplemented with 0.2% glucose)
370 from overnight grown cultures. We added 100 µl of bacterial culture to flat-bottomed 96-well
371 polystyrene microtiter plates (Cat no. 3595, Corning, NY, USA). We then incubated the plates at
372 37°C for 24 hours in static conditions to allow biofilm formation. After incubation, we carefully
373 pipetted out the TSB medium and washed the wells with PBS (Gibco, MD, USA) to remove
374 loosely attached planktonic cells. We treated the established biofilms in each well with 10 µl of
375 serially diluted 10× peptide solution, followed by the addition of 90 μl TSB medium
376 (supplemented with 0.2% glucose). We incubated the plates for another 24 h at 37°C before
377 processing biomass and live-cell contents. We calculated the concentration of peptide that disrupts
378 50% of established biofilms (MBEC50).
380 Fluorescence microscopy of CIT-8-treated S. aureus MW2 established biofilms
381 We prepared exponential phase cultures of S. aureus MW2 and adjusted the bacterial count
382 to 1 × 10^6 CFU/ml in fresh TSB medium. To establish biofilms, we added 200 µl of the bacterial
383 culture to the chambers of Millicell EZ Slides (Millipore Sigma, MA, USA) and maintained them
384 at 37°C for 24 hours under static conditions (8). After incubation, we carefully removed the TSB […]
We calculated the percent hemolysis, […]

Experiment [4] relates to S. aureus JE2 and transposon mutants. It is filed as cell-based, Staphylococcus aureus. The procedure: as §1, §2, §3, §4, §5
542 Use of S. aureus transposon mutants
543 We used S. aureus transposon mutants from the Nebraska Transposon Mutant Library
544 (NTML)(21). The library has a collection of 1,952 strains, each containing a single mutation within
545 a nonessential gene of USA300, an epidemic community-associated MRSA (CA-MRSA) isolate
546 (21). We selected a transposon insertion mutant from the NTML library in the fmtc gene, which
547 catalyzes the transfer of a lysyl group from L-lysyl-tRNA to membrane-bound
548 phosphatidylglycerol (PG) to produce lysylphosphatidylglycerol (LPG) (11). LPG imparts a less-
549 negative charge to the overall membrane potential and thus contributes to bacterial virulence by
550 contributing a resistance mechanism against cationic AMPs (11).

Experiment [5] concerns S. aureus isolates.
Experimental: as §6, §7, §8, §9, §10, §11, §12
The mark [6] stands for this setting: S. aureus BF1 (clinical isolate).
[7] abbreviates: S. aureus BF2 (clinical isolate).
The mark [8] stands for this setting: S. aureus BF3 (clinical isolate).
[9] abbreviates: S. aureus BF4 (clinical isolate).
Setting [10] is: S. aureus BF5 (clinical isolate).
Where [11] appears, read: S. aureus BF6 (clinical isolate).
Setting [12] is: S. aureus BF7 (clinical isolate).
Where [13] appears, read: S. aureus BF8 (clinical isolate).
Setting [14] is: S. aureus BF9 (clinical isolate).
[15] abbreviates: S. aureus BF10 (clinical isolate).
The mark [16] stands for this setting: S. aureus BF11 (clinical isolate).

Take `CN[C@H](CC(C)C)C(=O)N[C@H]1C(=O)N[C@@H](CC(N)=O)C(=O)N[C@H]2C(=O)N[C@H]3C(=O)N[C@H](C(=O)N[C@H](C(=O)O)c4cc(O)cc(O)c4-c4cc3ccc4O)[C@H](O)c3ccc(c(Cl)c3)Oc3cc2cc(c3O[C@@H]2O[C@H](CO)[C@@H](O)[C@H](O)[C@H]2O[C@H]2C[C@](C)(N)[C@H](O)[C@H](C)O2)Oc2ccc(cc2Cl)[C@H]1O` [Vancomycin, reference compound]: the MIC in the experiment with S. aureus isolates [1] (MRSA, S. aureus JE2 (MRSA)) came to 1 µg/mL (≈ 0.69 µM); with S. aureus isolates [1] (setting [6]), 0.5 µg/mL (≈ 0.345 µM); in the experiment with S. aureus isolates [1] (setting [7]), 2 µg/mL (≈ 1.38 µM); against S. aureus isolates [1] (setting [8]), 1 µg/mL (≈ 0.69 µM); against S. aureus isolates [1] (setting [9]), 2 µg/mL (≈ 1.38 µM); in the experiment on S. aureus isolates [1] (setting [10]), 1 µg/mL (≈ 0.69 µM). Also, the MIC in the experiment with S. aureus isolates [1] (setting [11]) worked out at 1 µg/mL (≈ 0.69 µM); with S. aureus isolates [1] (setting [12]), 1 µg/mL (≈ 0.69 µM); against S. aureus isolates [1] (setting [13]) it was 2 µg/mL (≈ 1.38 µM); against S. aureus isolates [1] (setting [14]) it was 0.5 µg/mL (≈ 0.345 µM); in the experiment on S. aureus isolates [1] (setting [15]), 2 µg/mL (≈ 1.38 µM); in the experiment with S. aureus isolates [1] (setting [16]), 2 µg/mL (≈ 1.38 µM). The MIC with S. aureus isolates [1] (VISA, S. aureus AR0215 (VISA)) is 2 µg/mL (≈ 1.38 µM); in the experiment on S. aureus isolates [1] (VISA, S. aureus AR0216 (VISA)), 4 µg/mL (≈ 2.76 µM); against S. aureus isolates [1] (VISA, S. aureus AR0217 (VISA)), 2 µg/mL (≈ 1.38 µM); in the experiment on S. aureus isolates [1] (VISA, S. aureus AR0219 (VISA)) it was above 4 µg/mL; in the experiment with S. aureus isolates [1] (VISA, S. aureus AR0225 (VISA)) it was 2 µg/mL (≈ 1.38 µM); against S. aureus isolates [1] (VRSA, S. aureus VRS1 (VRSA)), above 4 µg/mL.
For H-GLFKVIKKLLKVI-NH2 [CIT-8], the “Time to complete eradication of MRSA persister cells” value in experiment [2] is at most 30 min. In addition, the “Live/dead staining of established biofilm” value in experiment [3] is “high proportion of dead cells”. Moreover, the “Reduction in MIC against mprF transposon mutant compared with JE2” value in experiment [4] is 2 fold. The MIC in experiment [4] (JE2, Supplemental Table 6) worked out at 4 µg/mL; in experiment [4] (mprF transposon mutant (NTML)), 2 µg/mL; against S. aureus isolates [5] (S. aureus AR0215 (VISA)), 4 µg/mL; against S. aureus isolates [5] (S. aureus AR0216 (VISA)), 8 µg/mL; against S. aureus isolates [5] (S. aureus AR0217 (VISA)), 4 µg/mL; with S. aureus isolates [5] (S. aureus AR0219 (VISA)) it was 8 µg/mL. The MIC against S. aureus isolates [5] (S. aureus AR0225 (VISA)) was 4 µg/mL; in the experiment with S. aureus isolates [5] (setting [6]) it was 4 µg/mL; against S. aureus isolates [5] (setting [7]) it was 8 µg/mL; against S. aureus isolates [5] (setting [8]) it was 8 µg/mL; against S. aureus isolates [5] (setting [9]), 4 µg/mL; against S. aureus isolates [5] (setting [10]), 4 µg/mL. Besides, the MIC in the experiment on S. aureus isolates [5] (setting [11]), with S. aureus isolates [5] (setting [12]), against S. aureus isolates [5] (setting [13]), against S. aureus isolates [5] (setting [14]), against S. aureus isolates [5] (setting [15]) and in the experiment with S. aureus isolates [5] (setting [16]) was 4 µg/mL each time. Moreover, the MIC in the experiment with S. aureus isolates [5] (S. aureus JE2 (MRSA)) and against S. aureus isolates [5] (S. aureus VRS1 (VRSA)) was 4 µg/mL throughout. The “MIC for pdx-transposon mutant versus parent strain JE2” value in experiment [4] (also with 100 μM supplemental external vitamin B6) was “same MIC”. For the same compound, in the experiment with S. aureus isolates [5] (range over the isolates of Table 3), the “MIC against various VRSA, MRSA, VISA, and S. aureus clinical isolates” value lay within 4 to 8 µg/mL.
